# Activity calls are given as the source filed them. No cut-off for these calls is given here.
# Experiments:
# MDA-MB-231 [1] = experiment: Antiproliferative activity against human MDA-MB-231 cells after 48 hrs by MTT assay; type: functional, cell-based; details: MDA-MB-231, 48 h
# Cannabinoid receptor 1 = Cannabinoid receptor 1 (Homo sapiens, UniProt P21554); experiment: Displacement of [3H]CP55940 from human CB1 receptor transfected in HEK293 cells after 90 mins by liquid scintillation spectrophotometry; type: cell-based
# Cannabinoid receptor 2 = Cannabinoid receptor 2 (Homo sapiens, UniProt P34972); experiment: Displacement of [3H]CP55940 from human CB2 receptor transfected in HEK293 cells after 90 mins by liquid scintillation spectrophotometry; type: cell-based
# [2] = Antiproliferative activity against human SUM149 cells after 48 hrs by MTT assay; type: functional, cell-based; details: SUM149PT
# [3] = Antiproliferative activity against human SUM159 cells after 48 hrs by MTT assay; type: functional, cell-based; details: SUM-159-PT
# MDA-MB-468 = experiment: Antiproliferative activity against human MDA-MB-468 cells after 48 hrs by MTT assay; type: functional, cell-based; details: MDA-MB-468, 48 h
# HMEC = experiment: Antiproliferative activity against HMEC at 2 to 30 uM after 48 hrs by MTT assay; type: cell-based; details: human
# MDA-MB-231 [4] = experiment: Antiproliferative activity against human MDA-MB-231 cells at IC50 after 48 hrs by MTT assay in presence of SR141716; type: functional, cell-based
# MDA-MB-231 [5] = experiment: Antiproliferative activity against human MDA-MB-231 cells at IC50 after 48 hrs by MTT assay in presence of SR144528; type: functional, cell-based
# MDA-MB-231 [6] = experiment: Antiproliferative activity against human MDA-MB-231 cells at IC50 after 48 hrs by MTT assay in presence of CDI16020046; type: functional, cell-based
# MDA-MB-231 [7] = experiment: Antiproliferative activity against human MDA-MB-231 cells at IC50 after 48 hrs by MTT assay in presence of alpha-tocopherol; type: functional, cell-based
# MDA-MB-231 [8] = experiment: Induction of apoptosis in human MDA-MB-231 cells assessed as increase in active caspase-3 level at IC50 after 48 hrs by Western blotting analysis; type: functional, cell-based
# MDA-MB-231 [9] = experiment: Antitumor activity against human MDA-MB-231 cells xenografted in nude mouse assessed as reduction in tumor growth at 2 mg/kg, ip administered 3 times a week for 4 weeks relative to control; type: functional, organism-based; parameters: dose 2 mg/kg
# MDA-MB-231 [10] = experiment: Antitumor activity against human MDA-MB-231 cells xenografted in nude mouse assessed as reduction in tumor volume at 2 mg/kg, ip administered 3 times a week for 4 weeks relative to control; type: functional, organism-based; parameters: dose 2 mg/kg
# MDA-MB-231 [11] = experiment: Antitumor activity against human MDA-MB-231 cells xenografted in nude mouse assessed as reduction in tumor weight at 2 mg/kg, ip administered 3 times a week for 4 weeks relative to control; type: functional, organism-based; parameters: dose 2 mg/kg
# Mus musculus [12] = experiment: Toxicity in nude mouse xenografted with human MDA-MB-231 cells assessed as toxicity in liver at 2 mg/kg, ip administered 3 times a week for 4 weeks; type: organism-based; parameters: dose 2 mg/kg, route intraperitoneal; details: in vivo, 672 h
# Mus musculus [13] = experiment: Toxicity in nude mouse xenografted with human MDA-MB-231 cells assessed as toxicity in spleen at 2 mg/kg, ip administered 3 times a week for 4 weeks; type: organism-based; parameters: dose 2 mg/kg, route intraperitoneal; details: in vivo, 672 h
# Mus musculus [14] = experiment: Toxicity in nude mouse xenografted with human MDA-MB-231 cells assessed as toxicity in lungs at 2 mg/kg, ip administered 3 times a week for 4 weeks; type: organism-based; parameters: dose 2 mg/kg, route intraperitoneal; details: in vivo, 672 h
# Mus musculus [15] = experiment: Toxicity in nude mouse xenografted with human MDA-MB-231 cells assessed as toxicity in heart at 2 mg/kg, ip administered 3 times a week for 4 weeks; type: organism-based; parameters: dose 2 mg/kg, route intraperitoneal; details: in vivo, 672 h
# MDA-MB-231 [16] = experiment: Antiproliferative activity against human MDA-MB-231 cells after 72 hrs by MTT assay; type: functional, cell-based; details: MDA-MB-231, 72 h
# Sequence of Cannabinoid receptor 2 (P34972 whole entry): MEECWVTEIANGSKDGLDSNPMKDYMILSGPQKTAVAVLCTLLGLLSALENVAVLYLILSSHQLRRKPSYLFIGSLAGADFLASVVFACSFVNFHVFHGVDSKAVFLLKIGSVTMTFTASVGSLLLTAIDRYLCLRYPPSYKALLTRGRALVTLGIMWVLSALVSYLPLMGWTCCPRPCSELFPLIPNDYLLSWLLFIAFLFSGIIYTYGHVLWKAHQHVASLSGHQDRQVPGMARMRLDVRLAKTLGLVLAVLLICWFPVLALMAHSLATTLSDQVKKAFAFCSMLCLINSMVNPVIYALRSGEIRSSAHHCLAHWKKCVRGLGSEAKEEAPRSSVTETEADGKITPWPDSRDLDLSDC
# Sequence of Cannabinoid receptor 1 (P21554 whole entry): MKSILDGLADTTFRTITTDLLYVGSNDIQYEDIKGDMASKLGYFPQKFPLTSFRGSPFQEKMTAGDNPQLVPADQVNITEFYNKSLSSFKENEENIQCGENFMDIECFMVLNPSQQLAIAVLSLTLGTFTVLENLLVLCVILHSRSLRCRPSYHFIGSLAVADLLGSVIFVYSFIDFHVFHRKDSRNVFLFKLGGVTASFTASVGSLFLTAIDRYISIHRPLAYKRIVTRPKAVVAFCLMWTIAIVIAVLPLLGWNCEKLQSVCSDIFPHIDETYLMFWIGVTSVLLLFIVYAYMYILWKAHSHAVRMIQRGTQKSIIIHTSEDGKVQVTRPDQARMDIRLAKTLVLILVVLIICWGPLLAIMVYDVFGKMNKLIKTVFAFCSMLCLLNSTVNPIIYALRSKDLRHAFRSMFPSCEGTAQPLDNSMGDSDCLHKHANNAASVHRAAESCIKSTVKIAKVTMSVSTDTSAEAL
compound,measurement,setting,value
CCCCCCC(C)(C)C1=CC(=O)C2=C(OC(C)(C)c3cn(CC)nc32)C1=O,IC50,MDA-MB-231 [1],2.5 µM
CCCCCCC(C)(C)C1=CC2=C(C(=O)C1=O)c1[nH]ncc1C(C)(C)O2,Ki,Cannabinoid receptor 1,> 40 µM
same,Ki,Cannabinoid receptor 2,0.398 µM
same,IC50,MDA-MB-231 [1],8.5 µM
CCCCCCC(C)(C)C1=CC2=C(C(=O)C1=O)c1nn(C)cc1C(C)(C)O2,Ki,Cannabinoid receptor 1,> 40 µM
same,Ki,Cannabinoid receptor 2,0.597 µM
same,IC50,MDA-MB-231 [1],5 µM
CCCCCCC(C)(C)C1=CC2=C(C(=O)C1=O)c1c(cnn1CC)C(C)(C)O2,Ki,Cannabinoid receptor 1,> 40 µM
same,Ki,Cannabinoid receptor 2,0.529 µM
same,IC50,MDA-MB-231 [1],2.8 µM
same,IC50,[2],4.6 µM
same,IC50,[3],4.1 µM
same,IC50,MDA-MB-468,17.3 µM
same,Activity,HMEC,Non-toxic
same,Activity,MDA-MB-231 [4],Active
same,Activity,MDA-MB-231 [5],inactive
same,Activity,MDA-MB-231 [6],Active
same,Activity,MDA-MB-231 [7],inactive
same,Activity,MDA-MB-231 [8],Active
same,Activity,MDA-MB-231 [9],Active
same,Activity,MDA-MB-231 [10],Active
same,Activity,MDA-MB-231 [11],Active
same,Activity,Mus musculus [12],Non-toxic
same,Activity,Mus musculus [13],Non-toxic
same,Activity,Mus musculus [14],Non-toxic
same,Activity,Mus musculus [15],Non-toxic
CCCCCc1cc(O)c2c(c1)OC(C)(C)[C@@H]1CCC(C)=C[C@@H]21 [DRONABINOL],IC50,MDA-MB-231 [16],5 µM
CCCCCCC(C)(C)C1=CC(=O)C2=C(OC(C)(C)c3c[nH]nc32)C1=O,IC50,MDA-MB-231 [1],8.2 µM
CCCCCCC(C)(C)C1=CC(=O)C2=C(OC(C)(C)c3cn(C)nc32)C1=O,IC50,MDA-MB-231 [1],5.8 µM

# Reference: ChEMBL document CHEMBL3414526, “Selective, nontoxic CB(2) cannabinoid o-quinone with in vivo activity against triple-negative breast cancer” (J Med Chem, 2015)
